From patent US20260226006A1, “INDOLE COMPOUND, PREPARATION METHOD THEREFOR AND USE THEREOF” (SUZHOU MERNA THERAPEUTICS CO. LTD, priority 2023, published 2026)

Legend:
HaCat cells = experiment: m6A methylation level of human HaCat keratinocytes, EpiQuik m6A RNA methylation quantification kit (Example 20); type: cell-based; conditions: for m6A fold change relative to control group 1 / fold induction at 0.05 µM: HaCat cells, 24 hours; for m6A methylation level of human HaCat keratinocytes / fold induction at 0.05 µM: 50 nM drug alone; for fold induction at 0.05 µM: Homo sapiens, read-out: m6A fold change relative to control group 1
Procedure, shortened: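 HaCat keratinocytes in DMEM/10% FBS given 50 nM sorafenib, capecitabine, docetaxel or osimertinib, then 400 nM test compound or nicotinamide, and cultured 24 hours at 37° C. Total RNA m6A quantified by EpiQuik ELISA at 450 nm against a standard curve, expressed as percentage of RNA input.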

paw plantar skin of rats = experiment: Rat models with hand-foot skin reaction, topical ointment (Example 22); type: in vivo, SD rats; conditions: for Incidence rate / Incidence rate (successful modeling rate for hand-foot skin reaction): 30 days; for Incidence rate (successful modeling rate for hand-foot skin reaction): modeling drug alone by gavage once daily, no ointment, SD rats
Method: After adaptive feeding for one week, SD rats (with a body weight of approximately 200 g) were randomly divided into groups according to the body weight, with 12 rats in each group. Modeling drugs (including sorafenib, erlotinib, afatinib, and osimertinib) were respectively dissolved in a solution containing 5% of DMSO, 45% of PEG400, and 50% of H2O, and the modeling drugs were diluted to required concentrations and then administered once daily by gavage at doses shown in Table 3. After administration by gavage for 1 hour, 0.05 g of ointments containing different mass proportions of test compounds were evenly applied to left paws of the rats, a blank matrix ointment was applied to right paws of the rats to serve as a self-control, and no ointment was applied to the rats in a blank control group. After drug application, four limbs were continuously immobilized for 2 hours, then wiped with clean water to remove the residual drugs, removed from immobilization, and restored to free movement. The modeling drugs, the blank matrix ointment, and the ointments containing the test compounds were all administered once daily. After continuous administration for 30 days, the rats were euthanized, and paw plantar skin tissues were collected, fixed in 10% neutral formalin, […]. The ointments for the test compounds were prepared by mixing the compounds, white beeswax, white petrolatum, and light liquid paraffin in specific ratios (weight ratios of 3 ointments were respectively 1:18:58:23, 3:18:57:22, and 10:20:40:30). The blank matrix ointment was prepared by mixing white beeswax, white petrolatum, and light liquid paraffin in a specific ratio (weight ratio of 18:60:22).
Tissue staining: After dewaxing and rehydration, the paw plantar skin tissue sections of the above rats were stained in a hematoxylin solution for several minutes, cleaned, and placed in 1% acid alcohol for soaking until the sections faded to light blue-red. After cleaning with running water for 5 minutes, the sections were stained with eosin for 2-3 minutes, cleaned to remove excess dyes, dehydrated, then permeabilized by adding xylene for several minutes, and sealed and fixed with a neutral resin. The stratum corneum was observed under an optical microscope, and the thickness of the epidermal stratum corneum was measured using Dmetrix software.
Immunohistochemical staining: After dewaxing and hydration, the paw plantar skin tissue sections of the above rats were incubated with 3% H2O2 at room temperature for 30 minutes and blocked with 10% goat serum for 30 minutes after antigen retrieval. A KRT1 antibody (Abcam, ab93652) and a Loricrin antibody (Abcam, ab183646) were added dropwise, the sections were incubated overnight at 4° C., and an HRP secondary antibody (ZSGB-BIO, PV-6001) and a DAB kit (ZSG-BIO, ZLI9017) were added for color development. The sections were re-stained with hematoxylin, cleaned, and sealed and fixed with a neutral resin, and the expression amounts of KRT1 and Loricrin were observed under an optical microscope.
An incidence rate calculation method involves a proportion of animals in each group meeting the above criteria for determining successful modeling, that is, incidence rate=(number of successfully modeled rats/total number of rats in the group)*100%. […]

[1] = successfully modeled rats, modeling drug

CN1CC[C@H](C(N)=O)c2[nH]c3ccc(Cl)cc3c21 [Compound 8b, (S)-8-chloro-1-methyl-2,3,4,5-tetrahydropyrido[3,2-b]indole-4-carboxamide]
abnormal increase in the RNA m6A level of human keratinocytes caused by chemotherapeutic drugs and multikinase inhibitors (HaCat cells; 400 nM compound after 50 nM drug): effectively inhibit | m6A fold change relative to control group 1 (HaCat cells; 50 nM capecitabine + 400 nM test compound): 1.0 | m6A fold change relative to control group 1 (HaCat cells; 50 nM docetaxel + 400 nM test compound): 1.2 | m6A fold change relative to control group 1 (HaCat cells; 50 nM osimertinib + 400 nM test compound): 1.0 | m6A fold change relative to control group 1 (HaCat cells; 50 nM sorafenib + 400 nM test compound): 1.0 | Incidence rate (paw plantar skin of rats; afatinib 50 mg/kg, 1% compound ointment on left paw, left paw): 1/12 (8%) | Incidence rate (paw plantar skin of rats; afatinib 50 mg/kg, 1% compound ointment on left paw, right paw (blank matrix ointment)): 9/12 (75%) | Incidence rate (paw plantar skin of rats; afatinib 50 mg/kg, 3% compound ointment on left paw, left paw): 1/12 (8%) | Incidence rate (paw plantar skin of rats; afatinib 50 mg/kg, 3% compound ointment on left paw, right paw (blank matrix ointment)): 4/12 (33%) | Incidence rate (paw plantar skin of rats; afatinib 50 mg/kg, 10% compound ointment on left paw, left paw): 0/12 (0%) | Incidence rate (paw plantar skin of rats; afatinib 50 mg/kg, 10% compound ointment on left paw, right paw (blank matrix ointment)): 1/12 (8%) | incidence rate of hand-foot skin reaction at a drug application site (paw plantar skin of rats; compounds at a mass content of 1% in ointment): significantly decrease | incidence rate of hand-foot skin reaction in all paws of the rats (paw plantar skin of rats; compounds at mass contents of 3% and 10% in ointment): significantly decrease | Incidence rate (paw plantar skin of rats; erlotinib 70 mg/kg, 1% compound ointment on left paw, left paw): 2/12 (17%) | Incidence rate (paw plantar skin of rats; erlotinib 70 mg/kg, 1% compound ointment on left paw, right paw (blank matrix ointment)): 10/12 (83%) | Incidence rate (paw plantar skin of rats; erlotinib 70 mg/kg, 3% compound ointment on left paw, left paw): 1/12 (8%) | Incidence rate (paw plantar skin of rats; erlotinib 70 mg/kg, 3% compound ointment on left paw, right paw (blank matrix ointment)): 4/12 (33%) | Incidence rate (paw plantar skin of rats; erlotinib 70 mg/kg, 10% compound ointment on left paw, left paw): 0/12 (0%) | Incidence rate (paw plantar skin of rats; erlotinib 70 mg/kg, 10% compound ointment on left paw, right paw (blank matrix ointment)): 0/12 (0%) | Incidence rate (paw plantar skin of rats; osimertinib 60 mg/kg, 1% compound ointment on left paw, left paw): 1/12 (8%) | Incidence rate (paw plantar skin of rats; osimertinib 60 mg/kg, 1% compound ointment on left paw, right paw (blank matrix ointment)): 9/12 (75%) | Incidence rate (paw plantar skin of rats; osimertinib 60 mg/kg, 3% compound ointment on left paw, left paw): 1/12 (8%) | Incidence rate (paw plantar skin of rats; osimertinib 60 mg/kg, 3% compound ointment on left paw, right paw (blank matrix ointment)): 3/12 (25%) | Incidence rate (paw plantar skin of rats; osimertinib 60 mg/kg, 10% compound ointment on left paw, left paw): 0/12 (0%) | Incidence rate (paw plantar skin of rats; osimertinib 60 mg/kg, 10% compound ointment on left paw, right paw (blank matrix ointment)): 0/12 (0%) | formation of blisters, inflammatory cell infiltration in the dermis and skin congestion (pathological scoring) (paw plantar skin of rats; paw plantar skin of modeled rats, topical ointment): effectively improve | Incidence rate (paw plantar skin of rats; sorafenib 100 mg/kg, 1% compound ointment on left paw, left paw): 1/12 (8%) | Incidence rate (paw plantar skin of rats; sorafenib 100 mg/kg, 1% compound ointment on left paw, right paw (blank matrix ointment)): 8/12 (67%) | Incidence rate (paw plantar skin of rats; sorafenib 100 mg/kg, 3% compound ointment on left paw, left paw): 1/12 (8%) | Incidence rate (paw plantar skin of rats; sorafenib 100 mg/kg, 3% compound ointment on left paw, right paw (blank matrix ointment)): 3/12 (25%) | Incidence rate (paw plantar skin of rats; sorafenib 100 mg/kg, 10% compound ointment on left paw, left paw): 0/12 (0%) | Incidence rate (paw plantar skin of rats; sorafenib 100 mg/kg, 10% compound ointment on left paw, right paw (blank matrix ointment)): 1/12 (8%) | differentiation of keratinocytes both in vitro and in vivo (paw plantar skin of rats; summary of Examples 21 and 22): effectively inhibit | stratum corneum thickness of the paw plantar skin of the modeled rats (paw plantar skin of rats; topical ointment, modeled rats): effectively decrease

C=CC(=O)Nc1cc(Nc2nccc(-c3cn(C)c4ccccc34)n2)c(OC)cc1N(C)CCN(C)C [Osimertinib, osimertinib, reference compound]
m6A methylation level of human HaCat keratinocytes (HaCat cells): significantly increase | fold induction at 0.05 µM (HaCat cells): 4.8 | KRT1 and Loricrin in tissues (immunohistochemical staining) (paw plantar skin of rats; rat, in vivo): significantly increased | stratum corneum thickness of the paw plantar skin (paw plantar skin of rats; rat, in vivo): significantly higher than that of normal rats

CNC(=O)c1cc(Oc2ccc(NC(=O)Nc3ccc(Cl)c(C(F)(F)F)c3)cc2)ccn1 [Sorafenib, sorafenib, reference compound]
m6A methylation level of human HaCat keratinocytes (HaCat cells): significantly increase | fold induction at 0.05 µM (HaCat cells): 4.5 | Incidence rate (successful modeling rate for hand-foot skin reaction) (paw plantar skin of rats): 9/12 (75%) | Incidence rate (successful modeling rate for hand-foot skin reaction) (paw plantar skin of rats; listed as sorafenib): 75% | KRT1 and Loricrin in tissues (immunohistochemical staining) (paw plantar skin of rats; [1]): significantly increased | stratum corneum thickness of the paw plantar skin (paw plantar skin of rats; [1]): significantly higher than that of normal rats
